According to PubChem BioAssay (NCI):
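Exposure lasted 48 hours, with cells grown in 96-well plates and compounds tested at five concentrations. Here, GI50 denotes the concentration required for 50% inhibition of growth. The concentration for full growth arrest is given as TGI.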

What was measured:
Test in all cases: NCI anticancer screen, dose series, 48 h
NCI-H23 lung = tested on: NCI-H23 lung
SF-295 CNS = tested on: SF-295 CNS
COLO 205 colon = tested on: COLO 205 colon
SW-620 colon = tested on: SW-620 colon
SK-MEL-5 melanoma = tested on: SK-MEL-5 melanoma
HCC-2998 colon = tested on: HCC-2998 colon
ACHN renal = tested on: ACHN renal
RXF 393 renal = tested on: RXF 393 renal
HCT-15 colon = tested on: HCT-15 colon
RPMI-8226 leukemia = tested on: RPMI-8226 leukemia

COc1ccc(CCN2CCC(Nc3nc4ccccc4n3Cc3ccc(F)cc3)CC2)cc1
GI50 (NCI-H23 lung): 1690 nM
TGI (NCI-H23 lung): 3.5 µM
GI50 (SF-295 CNS): 1.65 µM
TGI (SF-295 CNS): 3.26 µM
GI50 (COLO 205 colon): 1520 nM
TGI (COLO 205 colon): 2.98 µM
GI50 (SW-620 colon): 1680 nM
TGI (SW-620 colon): 5.14 µM
GI50 (SK-MEL-5 melanoma): 1320 nM
TGI (SK-MEL-5 melanoma): 2.6 µM
GI50 (HCC-2998 colon): 460 nM
TGI (HCC-2998 colon): 1.69 µM
GI50 (ACHN renal): 1550 nM
TGI (ACHN renal): 2.93 µM
GI50 (RXF 393 renal): 1160 nM
TGI (RXF 393 renal): 2.44 µM
GI50 (HCT-15 colon): 1510 nM
TGI (HCT-15 colon): 3.16 µM
GI50 (RPMI-8226 leukemia): 1780 nM
TGI (RPMI-8226 leukemia): 4.73 µM

OCC1OC2OC3C(CO)OC(OC4C(CO)OC(OC5C(CO)OC(OC6C(CO)OC(OC7C(CO)OC(OC1C(O)C2O)C(O)C7O)C(O)C6O)C(O)C5O)C(O)C4O)C(O)C3O (centres undefined) (tested in a mixture with another compound)
TGI (NCI-H23 lung): > 100 µM
TGI (SF-295 CNS): > 100 µM
TGI (COLO 205 colon): > 100 µM
TGI (SW-620 colon): > 100 µM
TGI (SK-MEL-5 melanoma): 97.8 µM
TGI (HCC-2998 colon): > 100 µM
TGI (ACHN renal): > 100 µM
TGI (RXF 393 renal): > 100 µM
TGI (HCT-15 colon): > 100 µM
TGI (RPMI-8226 leukemia): > 100 µM

COC1=CC(c2ccc[nH]2)=N/C1=C\c1[nH]c(C)c(C(C)=O)c1C
GI50 (NCI-H23 lung): 5120 nM
TGI (NCI-H23 lung): > 100 µM
GI50 (SF-295 CNS): 10 µM
TGI (SF-295 CNS): > 100 µM
GI50 (COLO 205 colon): 790 nM
TGI (COLO 205 colon): > 100 µM
GI50 (SW-620 colon): 60.5 nM
GI50 (SK-MEL-5 melanoma): 768 nM
TGI (SK-MEL-5 melanoma): 3.07 µM
GI50 (HCC-2998 colon): 2080 nM
TGI (HCC-2998 colon): > 100 µM
GI50 (ACHN renal): 670 nM
TGI (ACHN renal): > 55.8 µM
GI50 (HCT-15 colon): 210 nM
TGI (HCT-15 colon): 2.15 µM
GI50 (RPMI-8226 leukemia): 329 nM
TGI (RPMI-8226 leukemia): 2.69 µM

CC(C)NC(=O)OCc1c(COC(=O)NC(C)C)c(-c2ccc(Cl)c(Cl)c2)n2c1CCC2
TGI (NCI-H23 lung): 60.9 µM
TGI (SF-295 CNS): 72.8 µM
TGI (COLO 205 colon): 71.3 µM
TGI (SW-620 colon): 71.7 µM
TGI (SK-MEL-5 melanoma): > 81.7 µM
TGI (HCC-2998 colon): 61.2 µM
TGI (ACHN renal): 43.6 µM
TGI (RXF 393 renal): 46.9 µM
TGI (HCT-15 colon): 71.3 µM
TGI (RPMI-8226 leukemia): 73.3 µM

COc1ccc(-c2cc(-c3cc(C)ccc3O)[nH]c(=O)n2)cc1
TGI (NCI-H23 lung): > 100 µM
TGI (SF-295 CNS): > 100 µM
TGI (COLO 205 colon): > 100 µM
TGI (SW-620 colon): > 100 µM
TGI (HCC-2998 colon): > 100 µM
TGI (ACHN renal): > 100 µM
TGI (RXF 393 renal): 88.6 µM
TGI (RPMI-8226 leukemia): > 100 µM

COc1ccc2c(c1)/C(=C\c1c(Cl)n(C)c3ccccc13)C(=O)N2
GI50 (NCI-H23 lung): 1990 nM
TGI (NCI-H23 lung): 11.4 µM
GI50 (SF-295 CNS): 0.981 µM
TGI (SF-295 CNS): 6.66 µM
GI50 (COLO 205 colon): 721 nM
TGI (COLO 205 colon): 4.36 µM
GI50 (SW-620 colon): 1130 nM
TGI (SW-620 colon): 17.1 µM
GI50 (SK-MEL-5 melanoma): 760 nM
TGI (SK-MEL-5 melanoma): 7 µM
GI50 (HCC-2998 colon): 306 nM
TGI (HCC-2998 colon): 1.08 µM
GI50 (ACHN renal): 1600 nM
TGI (ACHN renal): 16.2 µM
GI50 (RXF 393 renal): 1530 nM
TGI (RXF 393 renal): 8.23 µM
GI50 (HCT-15 colon): 456 nM
TGI (HCT-15 colon): 8.17 µM
GI50 (RPMI-8226 leukemia): 1760 nM
TGI (RPMI-8226 leukemia): > 34.3 µM

O=C1OC(c2ccccc2)=N/C1=C\c1cc(Cl)ccc1Cl
TGI (NCI-H23 lung): > 100 µM
TGI (SF-295 CNS): > 100 µM
TGI (COLO 205 colon): > 100 µM
TGI (SW-620 colon): > 100 µM
TGI (SK-MEL-5 melanoma): > 100 µM
TGI (HCC-2998 colon): > 100 µM
TGI (ACHN renal): > 100 µM
TGI (RXF 393 renal): > 100 µM
TGI (HCT-15 colon): 82.9 µM
TGI (RPMI-8226 leukemia): > 100 µM

COc1ccc(OC)c(/C=C2\COc3ccc(O)c(O)c3C2=O)c1
GI50 (NCI-H23 lung): 2440 nM
TGI (NCI-H23 lung): 7.3 µM
GI50 (SF-295 CNS): 4.29 µM
TGI (SF-295 CNS): 15.5 µM
GI50 (COLO 205 colon): 3220 nM
TGI (COLO 205 colon): 9.51 µM
GI50 (SW-620 colon): 2220 nM
TGI (SW-620 colon): 5.98 µM
GI50 (SK-MEL-5 melanoma): 1750 nM
TGI (SK-MEL-5 melanoma): 3.28 µM
GI50 (HCC-2998 colon): 1880 nM
TGI (HCC-2998 colon): 3.48 µM
GI50 (ACHN renal): 1840 nM
TGI (ACHN renal): 3.97 µM
GI50 (RXF 393 renal): 1830 nM
TGI (RXF 393 renal): 3.58 µM
GI50 (HCT-15 colon): 1300 nM
TGI (HCT-15 colon): 6.5 µM
GI50 (RPMI-8226 leukemia): 751 nM
TGI (RPMI-8226 leukemia): 6.12 µM

O=C(O)c1c[nH]c2c(OCc3ccccc3)c3ccccc3c(O)c2c1=O
GI50 (NCI-H23 lung): 3220 nM
TGI (NCI-H23 lung): 14.3 µM
GI50 (SF-295 CNS): 13 µM
TGI (SF-295 CNS): 27.8 µM
GI50 (COLO 205 colon): 17600 nM
TGI (COLO 205 colon): 34.7 µM
GI50 (RXF 393 renal): 23400 nM
TGI (RXF 393 renal): 45.6 µM
GI50 (HCT-15 colon): 16600 nM
TGI (HCT-15 colon): 31.9 µM
GI50 (RPMI-8226 leukemia): 9040 nM
TGI (RPMI-8226 leukemia): 35.8 µM

COC1OC(COS(=O)(=O)c2ccc(C)cc2)C(O)C(OS(=O)(=O)c2ccc(C)cc2)C1OS(=O)(=O)c1ccc(C)cc1 (centres undefined)
TGI (NCI-H23 lung): > 100 µM
TGI (SF-295 CNS): > 100 µM
TGI (COLO 205 colon): > 100 µM
TGI (SW-620 colon): > 100 µM
TGI (SK-MEL-5 melanoma): > 100 µM
TGI (HCC-2998 colon): > 100 µM
TGI (ACHN renal): > 100 µM
TGI (RXF 393 renal): > 100 µM
TGI (HCT-15 colon): > 100 µM
TGI (RPMI-8226 leukemia): > 100 µM

CCOC(=O)C(=O)Nc1c(C)cccc1C(C)C
TGI (NCI-H23 lung): > 100 µM
TGI (SF-295 CNS): > 100 µM
TGI (COLO 205 colon): > 100 µM
TGI (SW-620 colon): > 100 µM
TGI (SK-MEL-5 melanoma): > 100 µM
TGI (ACHN renal): > 100 µM
TGI (HCT-15 colon): > 100 µM
TGI (RPMI-8226 leukemia): > 100 µM

Cc1[nH]nc2ccc3nc(-c4ccc5[nH]ncc5c4)c4c(c3c12)CCCC4
GI50 (NCI-H23 lung): 2220 nM
TGI (NCI-H23 lung): 11.2 µM
GI50 (SF-295 CNS): 2.74 µM
TGI (SF-295 CNS): 10.5 µM
GI50 (COLO 205 colon): 1090 nM
TGI (COLO 205 colon): 10.8 µM
GI50 (SW-620 colon): 494 nM
TGI (SW-620 colon): 8.79 µM
GI50 (SK-MEL-5 melanoma): 1920 nM
TGI (SK-MEL-5 melanoma): 5 µM
GI50 (HCC-2998 colon): 2190 nM
TGI (HCC-2998 colon): 15.1 µM
GI50 (ACHN renal): 367 nM
TGI (ACHN renal): 12.9 µM
GI50 (RXF 393 renal): 230 nM
GI50 (HCT-15 colon): 638 nM
TGI (HCT-15 colon): 12.6 µM
GI50 (RPMI-8226 leukemia): 1510 nM
TGI (RPMI-8226 leukemia): 6.65 µM

O=C(O)c1cccc2cccc(C(=O)O)c12.[Hg]
GI50 (NCI-H23 lung): 15700 nM
TGI (NCI-H23 lung): 29.9 µM
GI50 (SF-295 CNS): 17.8 µM
TGI (SF-295 CNS): 32.2 µM
GI50 (COLO 205 colon): 3100 nM
TGI (COLO 205 colon): 14.5 µM
GI50 (SW-620 colon): 12700 nM
TGI (SW-620 colon): 32 µM
GI50 (SK-MEL-5 melanoma): 14000 nM
TGI (SK-MEL-5 melanoma): 27 µM
GI50 (HCC-2998 colon): 12000 nM
TGI (HCC-2998 colon): 25.3 µM
GI50 (ACHN renal): 17700 nM
TGI (ACHN renal): 31.8 µM
GI50 (RXF 393 renal): 16800 nM
TGI (RXF 393 renal): 32.3 µM
GI50 (HCT-15 colon): 14400 nM
TGI (HCT-15 colon): 29.8 µM

COC(=O)C(Cc1ccccc1)NC(=O)Cn1ccnc1[N+](=O)[O-] (centres undefined)
TGI (NCI-H23 lung): > 100 µM
TGI (SF-295 CNS): > 100 µM
TGI (COLO 205 colon): > 100 µM
TGI (SW-620 colon): > 100 µM
TGI (SK-MEL-5 melanoma): > 100 µM
TGI (ACHN renal): > 100 µM
TGI (RXF 393 renal): > 100 µM
TGI (HCT-15 colon): > 100 µM
TGI (RPMI-8226 leukemia): > 100 µM

O=C(O)c1ccccc1-c1ccccc1C(=O)Nc1ccc2c(c1)[nH]c(=O)c1ccccc12
TGI (NCI-H23 lung): > 100 µM
TGI (SF-295 CNS): > 100 µM
TGI (COLO 205 colon): > 100 µM
TGI (SW-620 colon): > 100 µM
TGI (SK-MEL-5 melanoma): > 100 µM
TGI (ACHN renal): > 100 µM
TGI (RXF 393 renal): > 100 µM
TGI (HCT-15 colon): > 100 µM
TGI (RPMI-8226 leukemia): > 100 µM

NC(=O)Nc1c([N+](=O)[O-])cc(C(F)(F)F)cc1[N+](=O)[O-]
TGI (NCI-H23 lung): > 100 µM
TGI (SF-295 CNS): > 100 µM
TGI (COLO 205 colon): 98.1 µM
TGI (SW-620 colon): > 100 µM
TGI (SK-MEL-5 melanoma): > 100 µM
TGI (ACHN renal): > 100 µM
TGI (RXF 393 renal): > 100 µM
TGI (HCT-15 colon): > 100 µM
TGI (RPMI-8226 leukemia): > 100 µM
